{"source": "paper PMC8058733", "about": "“A pain killer without analgesic tolerance designed by co-targeting PSD-95-nNOS interaction and α2-containning GABAARs” (Theranostics, 2021)", "key": {"locomotor activity": {"system": "locomotor activity", "assay": "Open field test, locomotor activity", "assay_type": "in vivo", "conditions": "mice, 1 h after injection, ZL006-05 60 mg/kg, i.v., diazepam 0.5 mg/kg", "protocol": "The locomotor activity was assessed by the open field test as described previously. The apparatus consisted of a large area composed of plastic, surrounded by walls that were 100 cm high. The floor was 50 × 50 cm for mice; the overall illumination was 25 lux. Each animal was gently placed in the center of the open field, and its behavior was videotaped. The distance the animals travelled was measured in a 5-min session using ANY-maze (Stoelting Co., IL, USA). After each trial, the plate was cleaned with 70% EtOH. No stressor was applied to the animals for at least 12 h before the test."}, "[1]": {"system": "SNL-induced thermal hyperalgesia", "assay": "SNL-induced thermal hyperalgesia, paw withdrawal latency", "assay_type": "in vivo, mice", "conditions": "mice, ZL006-05 60 mg/kg, i.g., 0-24 h", "protocol": "Neuropathic pain was induced by segmental spinal nerve ligation (SNL). Animals were anesthetized with isoflurane. After the loss of righting reflex, the animal was fixed in the prone position. The SNL model was prepared as described previously: a median skin incision with about 3-5 cm length in L4-S2 level of the mouse back was made, the muscles next to the vertebrae till the sixth lumbar protruding were separated, the L5/L6 joint protruding on the right side was exposed and excised, and L6 processus transversus was partially split so that the L4-L6 spinal nerves on the right side were exposed. L5 nerve was gently isolated and tightly ligated with 5-0 silk thread. […]\nPaw withdrawal latency (PWL) response to thermal stimulus was assessed through the Hargreaves test. […] To record the PWL in response to thermal stimulus, each animal was measured five times with a 5-min interval, and the mean value was recorded after excluding maximal and minimum values. […]\n(A) Time course of SNL-induced thermal hyperalgesia after treating with ZL006-05 (60 mg/kg, i.g.) in mice. Paw withdrawal latency response to thermal stimulation was detected at 0, 1, 2, 4, 6, 8, 10, 12 and 24 h after drug administration. ( B) Areas under the curve of paw withdrawal latency 0-24 h after treatment calculated from ( A) (F (1,16) = 43.07, ***p < 0.001, two-tailed t-test, n = 9). […]"}, "spatial memory": {"system": "spatial memory", "assay": "Morris water maze task", "assay_type": "in vivo", "conditions": "rats; ZL006-05 90 mg/kg/d, i.g.; MK801 0.25 mg/kg/d, i.v.; 6 days", "protocol": "The Morris water maze task was used to exam spatial cognitive performance of rats. A circular swimming pool (Jiliang Neuroscience Inc.) measuring 180 cm in diameter and 48 cm in height was filled with water to a depth of 26 cm at 24 ± 2 °C. Four starting points around the edge of the pool were designated as N, E, S, and W, which divided the pool into four quadrants. A platform, 10 cm in diameter, was located in a constant position in the middle of one quadrant. To render it invisible to the rats, platform was submerged 2.0 cm below the surface of the water. The task for the rats was to escape from the water by locating the hidden platform. Two days before training, the animals were habituated to swimming for 60 s in the pool without a platform. In training session, rats were trained to escape from the water by locating the platform which was above the water with a red flag on it. Then, one block of four trails was given for 6 consecutive days, and on each day, two groups of rats were administrated with MK801 (0.25 mg/kg, i.v.) or vehicle (6 mL/kg, i.v.) 30 minutes before the first trail. Meanwhile, another two groups of rats were treated with ZL006-05 (90 mg/kg, i.g.) or vehicle (6 mL/kg, i.g.) 1 hour before the first trail. […] During retention, the number of crossings of the platform location and the time spent in the target quadrant were measured."}, "[2]": {"system": "SNL-induced mechanical hyperalgesia", "assay": "SNL-induced mechanical hyperalgesia, paw withdrawal threshold", "assay_type": "in vivo, rat", "conditions": "SNL rats, ZL006-05 60 mg/kg/d, i.g., ×11 d"}, "α5β3γ2 GABAARs": {"system": "α5β3γ2 GABAARs", "assay": "Potentiation of GABA-evoked currents, whole-cell patch-clamp in HEK293 cells transiently expressing recombinant GABAARs", "assay_type": "cell-based"}, "[3]": {"system": "basic pain threshold under normal conditions", "assay": "Mechanical nociceptive thresholds in normal rats", "assay_type": "in vivo, rat", "conditions": "ZL006-05 90 mg/kg/d, i.g., × 11 d, 2 h after administration", "protocol": "For rats, the threshold for 50% paw withdrawal (50% PWT) response to mechanical stimulus was assessed through a dynamic plantar apparatus (Ugo Basile, Italy). The 50% PWT refers to that the probability of paw withdrawal response to repeated mechanical stimulus is 50%. Rats were placed individually in a plastic cage (17 × 15 × 15 cm) with a wire mesh bottom which allowed full access to the paws. Behavioral accommodation was allowed for 15-20 min until cage exploration and major grooming activities ceased. A maximal cut-off of 50g/50s was set to prevent tissue damage. To record the PWT in response to mechanical stimulus, each rat was measured five times with a 5-min interval, and the mean value was recorded after excluding maximal and minimum values. The experimental procedures were performed in a double-blind manner."}}}
{"smiles": "CC1(C)C2CCC1(C)C(OC(=O)c1ccc(NCc3cc(Cl)cc(Cl)c3O)cc1O)C2", "note": "(stereo not drawn) [ZL006-05]", "values": [{"measurement": "Locomotor activity, distance travelled during 5 min", "setting": "locomotor activity", "result": "had no effect"}, {"measurement": "Effect on SNL-induced thermal hyperalgesia", "setting": "[1]", "result": "reduced SNL-induced mechanical hyperalgesia and thermal pain"}, {"measurement": "Spatial memory in the Morris water maze task", "setting": "spatial memory", "result": "but not ZL006-05 caused significantly impaired spatial memory"}, {"measurement": "Analgesic tolerance, mechanical hyperalgesia", "setting": "[2]", "result": "did not produce analgesic tolerance"}, {"measurement": "Effect on α5GABAAR (in words)", "setting": "α5β3γ2 GABAARs", "result": "low efficacy on α3GABAAR and α5GABAAR"}, {"measurement": "Basic mechanical nociceptive threshold", "setting": "[3]", "result": "did not change the basic threshold"}]}
